Columns and labels:
SMN2 splicing [1] = experiment: qPCR of SMN transcripts in motor neurons derived from SMA patient iPSCs (GM24468); type: cell-based, human; settings: iPSC-derived motor neurons (GM24468), 24 h
Experimental: GM24468 cells were differentiated to motor neurons (MNs) via a motor neuron progenitor (MNP) as previously reported. Briefly described, GM24468 were treated with a chemically defined neural medium, including DMEM/F12, Neurobasal medium at 1:1, 0.5% N2, 0.1% B27, 0.1 mM ascorbic acid (Sigma Aldrich, USA), 1 × GlutaMax, and 1 × penicillin/streptomycin. 3 µM CHIR99021 (Wako), 2 µM DMH1 (Sigma Aldrich) and 2 µM SB431542 (Wako) were added in the medium. The culture medium was changed every other day. GM24468 maintained under this condition for 6 days were induced into neuroepithelial progenitors (NEPs). NEPs were then dissociated and split with dispase (Stemcell technologies) and neural medium containing 0.1 µM RA (Sigma Aldrich), 0.5 µM Purmorphamine (Pur) (Merck, USA), 1 µM CHIR99021, 2 µM DMH1 and 2 µM SB431542. The medium was changed every other day. NEPs maintained under this condition for 6 days differentiated into OLIG2^+ MNPs. The OLIG2^+ MNPs were expanded with the same medium containing 1 µM CHIR99021, 2 µM DMH1, 2 µM SB431542, 0.1 µM RA, and 0.5 µM Pur, and split once a week. To induce MNs differentiation, OLIG2^+ MNPs cultured in suspension in the above neural medium with 0.5 µM RA and 0.1 µM Pur. The medium was changed every other day. OLIG2^+ MNPs under this condition for 6 days differentiated into MNX1^+ MNs. […]

FOXM1ΔC = experiment: qPCR of FOXM1ΔC variant in GM03813 fibroblasts; type: cell-based, human; settings: 24 h, 300% total target mRNA increase, 95% CI in brackets
Experimental: GM03813 fibroblasts, GM24468-derived MNs, NRK-49F, MDCK, CV-1, or NCMDF cells were plated at a density of 0.5 or 1.5 × 10^4, 4 × 10^4, 5 × 10^3, 5 × 10^3, 8 × 10^3, or 6 × 10^3 cells/well on 96-well plates, respectively. After approximately 6 h, the medium was added with the same volume of culture medium containing each compound at the concentration of 0.06, 0.2, 0.6, 0.2, and 6 µM. The final concentration of DMSO was adjusted to 0.1% in culture condition.
All cells were treated with above compounds for 24 h and washed once with Dulbecco’s Phosphate-Buffered Saline without Ca and Mg [D-PBS (–)] (Wako or Nakarai Tesque). In case of using GM03813 or GM24468-derived MNs, cell lysis and reverse transcription were carried out using SuperPrep Cell Lysis & RT Kit for qPCR in accordance with manufacturer’s recommendations (Toyobo, Japan). qPCR was performed using THUNDERBIRD Probe qPCR Mix (Toyobo). The final concentrations of primers and probes were adjusted to 0.4 µM and 0.15 µM, respectively (Supplementary Table 1). Cycle conditions were as follows; 95 °C for 1 min; followed by 40 cycles of denaturation at 95 °C for 15 s; annealing and elongation at 60 °C for 1 min in the ViiA7 RT-PCR system (Thermo Fisher Scientific). The copy numbers of each target were normalized to those of GAPDH.

GALC = GALC enzymatic assay from Hs683 cells; type: cell-based, human; settings: 3 days
Experimental: GALC enzymatic activities were quantified as reported by Wiederschain et al.[47]. Hs683 cells were seeded at 1.5 × 10^5 cells/well in 6-well plate. Cells were treated with TEC-1 (0.1, 0.3, or 1 µM) or SMN-C3 (0.03, 0.1, 0.3, or 1 µM) for 3 days. Hs683 cells were washed with D-PBS (–), collected with ultra-pure water using a cell scraper, and homogenized with homogenizers (NS-4, NS310E, Micotechnition, Japan) for 10 s. Cell lysates were centrifuged at 600 × g for 10 min at 4 °C, followed by collection of supernatants. The concentration of protein of each sample was quantified with a BCA kit. The samples were adjusted to 1 µg protein/µL (total volume 20 µL) with ultra-pure water and then 80 µL of reaction buffer (0.25% taurocholate, 0.05% oleic acid and 0.1 mol/L citrate, pH 4.4) containing 80 µM 6-Hexadecanoylamino-4-methylumbelliferone b-D-galactopyranoside (HMU-Gal, Carbosynth, UK) was added. Stop buffer (0.2 mol/L Glycine solution with NaOH, pH 10.6) was mixed with an equal amount of ethanol. The mixture was reacted at 37 °C for 20 h. […] Signals were detected by reading the fluorescence emission at 450 nm with plate reader (Enspire, PerkinElmer) excited by 385 nm. The fluorescence intensity was corrected by the value of standard substrate of 6-hexadecanoylamino-4-methylumbelliferone (Cat. No. EH10520, Carbosynth).

SMN2 splicing [2] = experiment: qPCR of SMN transcripts in GM03813 cells exposed to TEC-1 and nusinersen; type: cell-based, human; settings: GM03813, 24 h
Experimental: Transient transfection of GM03813 fibroblasts with nusinersen (final concentration 100 nM) was performed using Lipofectamine 2000. Cells were seeded 6 h prior to transfection at a density of 5 × 10^3 cells/well in 96-well plate. Transfection was performed according to manufacturer’s instructions. Cells were co-incubated either 0.1% DMSO or with TEC-1 at the concentration of 0.03, 0.1, 0.3, 1, and 3 µM for 24 h.

[3] = molecular target: T1, human acetylcholinesterase (Homo sapiens, UniProt P22303); experiment: Eurofins selectivity panel: acetylcholinesterase; type: biochemical
T1 construct: purchased Eurofins Inc
T1 sequence (P22303 32-614): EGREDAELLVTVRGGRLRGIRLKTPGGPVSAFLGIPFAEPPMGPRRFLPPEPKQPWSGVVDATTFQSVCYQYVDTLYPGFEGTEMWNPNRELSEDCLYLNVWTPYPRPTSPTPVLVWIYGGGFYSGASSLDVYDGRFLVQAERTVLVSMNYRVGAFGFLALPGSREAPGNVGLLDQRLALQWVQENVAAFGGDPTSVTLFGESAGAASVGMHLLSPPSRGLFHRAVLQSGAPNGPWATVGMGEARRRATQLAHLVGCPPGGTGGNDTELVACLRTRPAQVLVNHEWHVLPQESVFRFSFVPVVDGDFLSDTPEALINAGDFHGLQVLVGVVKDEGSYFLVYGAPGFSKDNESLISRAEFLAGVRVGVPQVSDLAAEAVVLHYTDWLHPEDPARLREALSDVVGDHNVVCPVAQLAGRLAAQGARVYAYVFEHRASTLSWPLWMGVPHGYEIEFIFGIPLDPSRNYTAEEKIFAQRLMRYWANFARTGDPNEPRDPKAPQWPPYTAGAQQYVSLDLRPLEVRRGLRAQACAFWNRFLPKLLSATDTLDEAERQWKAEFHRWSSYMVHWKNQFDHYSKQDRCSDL

**Q.** How did the “SMN2 splicing in motor neurons” value (SMN2 splicing [1]; similar effects to TEC-1) turn out when `CCN1CCC(c2cc(C)c3nc(-c4cc5c(C)nc(C)cn5n4)cc(=O)n3c2)CC1` [SMN-C3, reference compound] was run?
**A.** modulates SMN2 splicing

**Q.** What about the “EC4.0× FOXM1ΔC” value (FOXM1ΔC) of the same molecule?
**A.** 298.5 (248.8–355.8) nM

**Q.** What about the “GALC enzymatic activity compared to TEC-1” value (GALC) of the same molecule?
**A.** strongly decreased the activity of GALC

**Q.** With `Cc1cn2nc(-c3nc4ccc(N5CCN(C)CC5)cc4c(=O)[nH]3)cc2c(C)n1` [TEC-1, 2-(4,6-dimethylpyrazolo[1,5-a]pyrazin-2-yl)-6-(4-methylpiperazin-1-yl)quinazolin-4(3H)-one] as the molecule, how does the “concentration showing clear ability to modulate SMN2 splicing” value (SMN2 splicing [1]) read?
**A.** 30 nM

**Q.** What about the “EC4.0× FOXM1ΔC” value (FOXM1ΔC) of the same molecule?
**A.** 1311.6 (864.7–2285.8) nM

**Q.** What about the “effect on the activity of nusinersen” value (SMN2 splicing [2]; TEC-1 at 1 and 3 µM with nusinersen 100 nM) of the same molecule?
**A.** significantly enhanced the effects of nusinersen

**Q.** What about the “effect on the activity of nusinersen” value (SMN2 splicing [2]; low concentrations of TEC-1 with nusinersen 100 nM) of the same molecule?
**A.** did not inhibit the effects of nusinersen

**Q.** And the IC50 [3]?
**A.** 1.19 µM

**Q.** And the GALC enzymatic activity (GALC; 3000 nM)?
**A.** slight decrease

Reference: paper PMC7562719, “Discovery of a CNS penetrant small molecule SMN2 splicing modulator with improved tolerability for spinal muscular atrophy” (Scientific Reports, 2020)
